Several values for one entry are separate records, joined by “and”; a condition that tells them apart may be missing. Equal values may be shown once.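 96-well plates; 48 h exposure; 5 concentrations. Endpoints by linear interpolation between flanking doses. Not reached: highest tested concentration assigned. GI50 = concentration required for 50% inhibition of growth.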 Activity calls are given as the source filed them. No stated cut-off is given here; in the data, active = GI50 up to about 1.1 µM and inactive = higher.
Assays:
Test in all cases: NCI-60 cell line screen, 48 h
SF-295 = tested on: SF-295
ACHN = tested on: ACHN
SF-539 = tested on: SF-539
MOLT-4 = tested on: MOLT-4
MCF7 = tested on: MCF7
PC-3 = tested on: PC-3
U-251 = tested on: U-251
M14 = tested on: M14
NCI-H226 = tested on: NCI-H226
HCC 2998 = tested on: HCC 2998
SW-620 = tested on: SW-620
SK-MEL-5 = tested on: SK-MEL-5
Hs-578T = tested on: Hs-578T
SF-268 = tested on: SF-268
UO-31 = tested on: UO-31
CAKI-1 = tested on: CAKI-1
LOX IMVI = tested on: LOX IMVI
SK-OV-3 = tested on: SK-OV-3
Malme-3M = tested on: Malme-3M
RXF 393 = tested on: RXF 393

Measured: GI50

Cc1cc(=O)oc2c(CNC(Cc3ccccc3)C(=O)O)c(O)ccc12 (stereo not given)
inactive: SF-295 > 100 µM | ACHN > 100 µM | SF-539 > 100 µM | MOLT-4 > 100 µM | MCF7 > 100 µM | PC-3 > 100 µM | U-251 > 100 µM | M14 > 100 µM | NCI-H226 > 100 µM | HCC 2998 > 100 µM | SW-620 > 100 µM | SK-MEL-5 > 100 µM | Hs-578T > 100 µM | SF-268 > 100 µM | UO-31 73.3 µM | CAKI-1 > 100 µM | LOX IMVI > 100 µM | SK-OV-3 > 100 µM | Malme-3M 61.5 µM | RXF 393 > 100 µM

Cc1ccc(NC(S)=Nc2c(C)n(C)n(-c3ccccc3)c2=O)cc1
inactive: SF-295 > 100 µM | ACHN > 100 µM | SF-539 > 100 µM | MOLT-4 87.9 µM | MCF7 > 100 µM | PC-3 > 100 µM | U-251 > 100 µM | M14 > 100 µM | NCI-H226 > 100 µM | HCC 2998 > 100 µM | SW-620 > 100 µM | SK-MEL-5 > 100 µM | Hs-578T > 100 µM | SF-268 > 100 µM | UO-31 > 100 µM | CAKI-1 > 100 µM | LOX IMVI > 100 µM | SK-OV-3 > 100 µM | Malme-3M > 100 µM | RXF 393 > 100 µM

Cc1nc2cccc([N+](=O)[O-])c2c(NCCCN(C)C)c1C
inactive: SF-295 36.6 µM | ACHN 97.3 µM | SF-539 45.4 µM | MOLT-4 20.5 µM | MCF7 23 µM | PC-3 17.8 µM | U-251 > 79.8 µM | M14 35.5 µM | NCI-H226 > 50.6 µM | HCC 2998 21.8 µM | SW-620 29.4 µM | SK-MEL-5 35.6 µM | Hs-578T > 61.1 µM | SF-268 > 77.3 µM | UO-31 > 100 µM | CAKI-1 32.9 µM | LOX IMVI 84.9 µM | SK-OV-3 > 100 µM | Malme-3M 22.2 µM | RXF 393 16.1 µM

Cc1ccc(NC(c2ccccc2)P(=O)(c2ccccc2)c2ccccc2)cc1 (stereo not given)
inactive: SF-295 29.9 µM | ACHN 63.7 µM | SF-539 > 100 µM | MOLT-4 > 100 µM | MCF7 > 100 µM | PC-3 > 100 µM | U-251 > 100 µM | M14 > 100 µM | NCI-H226 > 100 µM | HCC 2998 > 100 µM | SW-620 > 100 µM | SK-MEL-5 > 100 µM | Hs-578T 44.7 µM | SF-268 71.3 µM | UO-31 > 100 µM | CAKI-1 > 100 µM | LOX IMVI > 100 µM | SK-OV-3 > 100 µM | Malme-3M > 100 µM | RXF 393 47.1 µM

COC(=O)c1ccc(C)cc1CC1Cc2cccc(C)c2C1=O (stereo not given)
inactive: SF-295 6.49 µM | ACHN 18.8 µM | SF-539 4.02 µM | MOLT-4 4.11 µM | MCF7 2.38 µM | PC-3 8.34 µM | U-251 3.87 µM | M14 3.93 µM | NCI-H226 3.83 µM | HCC 2998 9.59 µM | SW-620 3.72 µM | SK-MEL-5 3.59 µM | Hs-578T 9.77 µM | SF-268 7.98 µM | UO-31 13.4 µM | CAKI-1 10.6 µM | LOX IMVI 2.88 µM | SK-OV-3 8.05 µM | Malme-3M 5.97 µM | RXF 393 7.87 µM

Cc1nc2c(Br)cc(Br)cc2c(=O)n1-c1ccccc1NC1OC(CO)C(O)C(O)C1O (stereo not given)
inactive: SF-295 > 100 µM | ACHN > 100 µM | SF-539 > 100 µM | MOLT-4 > 100 µM and 79.1 µM | MCF7 > 100 µM | PC-3 > 100 µM | U-251 > 100 µM | M14 > 100 µM | NCI-H226 > 100 µM | HCC 2998 > 100 µM | SW-620 > 100 µM | SK-MEL-5 > 100 µM | Hs-578T > 100 µM | SF-268 > 100 µM | UO-31 > 100 µM | CAKI-1 > 100 µM | LOX IMVI > 100 µM | SK-OV-3 > 100 µM | Malme-3M > 100 µM | RXF 393 > 100 µM

CCOC(=O)C(SCCO)C(C(=O)OCC)n1cc(C)c(=O)[nH]c1=O (stereo not given)
inactive: SF-295 > 79.4 µM | ACHN 8.75 µM | SF-539 23.1 µM | MOLT-4 4.81 µM | MCF7 11.6 µM | PC-3 13.9 µM | U-251 11.5 µM | M14 11.6 µM | NCI-H226 > 32.7 µM | HCC 2998 27.4 µM | SW-620 5.96 µM | SK-MEL-5 23.2 µM | Hs-578T 63.4 µM | SF-268 29.3 µM | UO-31 22.9 µM | CAKI-1 4.44 µM | LOX IMVI 6.84 µM | SK-OV-3 > 79.3 µM | Malme-3M 15.4 µM | RXF 393 17 µM

— ChEMBL document CHEMBL1201862, “PubChem BioAssay data set” (2004)
